Data as given in PMC6994673, “Metabolism of multiple glycosaminoglycans by Bacteroides thetaiotaomicron is orchestrated by a versatile core genetic locus” (Nature Communications, 2020).

Target: T1, BT3349-S1_27^4S-sulf (Bacteroides thetaiotaomicron, UniProt Q8A2F6)
T1 construct: gene BT_3349; pET28a, N- or C-terminal His6, E. coli; Talon and size exclusion; periplasmic, SpII signal peptide
T1 sequence (Q8A2F6 13-508): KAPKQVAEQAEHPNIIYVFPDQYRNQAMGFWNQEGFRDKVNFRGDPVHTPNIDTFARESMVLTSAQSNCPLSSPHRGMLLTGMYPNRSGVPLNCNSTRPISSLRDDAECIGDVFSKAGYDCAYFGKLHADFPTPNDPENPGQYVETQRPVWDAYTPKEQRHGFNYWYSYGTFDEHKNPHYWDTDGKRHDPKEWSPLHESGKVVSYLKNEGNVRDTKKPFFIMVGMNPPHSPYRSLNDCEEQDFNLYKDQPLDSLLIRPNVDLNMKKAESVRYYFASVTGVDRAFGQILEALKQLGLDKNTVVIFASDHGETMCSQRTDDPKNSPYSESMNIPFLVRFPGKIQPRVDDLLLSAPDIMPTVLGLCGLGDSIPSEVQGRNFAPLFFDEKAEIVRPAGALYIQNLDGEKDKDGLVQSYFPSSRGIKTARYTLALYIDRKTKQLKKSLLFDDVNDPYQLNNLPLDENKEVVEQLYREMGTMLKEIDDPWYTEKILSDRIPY
Experiment: continuous linked assay with GH88, loss of absorbance at […] nm
Assay type: biochemical
Conditions: 50 mM MES pH 6.0 or Bis-Tris propane pH 6.5, 150 mM NaCl, 37 °C; kinetic parameters only in supplement, kind not told

CC(=O)N[C@H]1C(O)O[C@H](CO)[C@H](OS(=O)(=O)O)[C@@H]1O[C@@H]1OC(C(=O)O)=C[C@H](O)[C@H]1O (stereo partly shown) [Δ4,5UA-GalNAc4S] was tested, and the kinetic parameters was “monitored via a continuous linked assay using BT3334^GH88 and UA-GalNAc4S as the substrate”.
